Results on twelve compounds are retold here after patent US11155544B2, “Heterocycle comprising tyrosine kinase inhibitors” (Principia Biopharma Inc., priority 2015, dated 2021).

pIC50: −log10 of the molar value.

In assay [1] the test system is CD69 expression. Description: Blockade of CD69 Expression in Human Whole Blood Samples. Format: cell-based. The settings on record: 30 minutes pre-incubation, activation with anti-IgM, cells gated on CD20, CD69 by FACS. The protocol: Activation of the B cell receptor leads to increased BTK activity, calcium mobilization and B cell activation (see Honigberg L. A., et. al., Proc Natl Acad Sci USA. 107:13075-80. 2010). […] CD69 was expressed following B cell activation as a measure of BTK activity in whole blood. Aliquots of whole blood were pre-incubated with serial dilutions of test compound for 30 minutes followed by activation with anti-IgM (goat Fab′ 2, 50 μg/ml). Samples were incubated overnight at 37° C. and then stained with PE labeled anti-CD20 and APC labeled anti-CD69 (BD Pharmingen) for 30 minutes according to the manufacturer's directions. Whole blood was then lysed and cells gated on CD20 expression were quantified for CD 69 expression by FACS. The percent inhibition was calculated based on a DMSO control for no inhibition and plotted as a function of test compound concentration from which an IC50 value was calculated.
Background: Flow cytometry measures light scatter and fluorescence of single cells or particles in a stream.

In assay [2] the target is human recombinant BTK (Homo sapiens (Human), UniProt Q06187). The assay can be described thus: BTK Enzymatic Activity Assay (Caliper-based kinase assay). Format: biochemical. The settings on record: human recombinant BTK (0.5 nM), ATP (16 μM), peptide substrate (1 μM), room temperature for 3 h. The protocol:
A Caliper-based kinase assay (Caliper Life Sciences, Hopkinton, Mass.) was used to measure inhibition of BTK kinase activity of a compound of the present disclosure. Serial dilutions of test compounds were incubated with human recombinant BTK (0.5 nM), ATP (16 μM) and a phosphoacceptor peptide substrate FAM-GEEPLYWSFPAKKK-NH2 (1 μM) at room temperature for 3 h. The reaction was then terminated with EDTA, final concentration 20 mM and the phosphorylated reaction product was quantified on a Caliper Desktop Profiler (Caliper LabChip 3000). Percent inhibition was calculated for each compound dilution and the concentration that produced 50% inhibition was calculated. This value is presented as the IC50.

A word on the pIC50: it is the negative decadic logarithm of the IC50, by convention in mol/L.

human recombinant BTK, sequence (Q06187 whole entry): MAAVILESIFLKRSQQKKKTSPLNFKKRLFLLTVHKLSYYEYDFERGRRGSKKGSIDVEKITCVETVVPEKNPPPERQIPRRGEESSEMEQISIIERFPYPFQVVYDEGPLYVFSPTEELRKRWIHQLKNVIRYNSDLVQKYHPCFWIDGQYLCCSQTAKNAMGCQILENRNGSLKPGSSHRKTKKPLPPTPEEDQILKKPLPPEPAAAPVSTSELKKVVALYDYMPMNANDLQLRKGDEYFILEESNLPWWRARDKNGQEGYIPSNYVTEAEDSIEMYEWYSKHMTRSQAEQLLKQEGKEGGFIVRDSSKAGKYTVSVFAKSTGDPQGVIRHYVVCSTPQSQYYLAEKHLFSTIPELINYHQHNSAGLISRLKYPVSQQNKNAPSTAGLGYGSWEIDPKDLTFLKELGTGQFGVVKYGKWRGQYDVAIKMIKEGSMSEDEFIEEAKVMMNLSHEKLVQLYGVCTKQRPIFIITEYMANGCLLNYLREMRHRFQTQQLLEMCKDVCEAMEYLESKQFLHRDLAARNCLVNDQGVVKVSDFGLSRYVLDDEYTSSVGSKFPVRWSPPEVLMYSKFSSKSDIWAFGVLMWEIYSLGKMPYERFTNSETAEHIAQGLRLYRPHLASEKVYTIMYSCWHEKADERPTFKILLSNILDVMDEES

Turning to `CC(C)(/C=C(\C#N)C(=O)N1CCC[C@@H](n2nc(-c3ccc(Oc4ccccc4)cc3F)c3c(N)nccc32)C1)N1CCOCC1` [Compound 11, (R)-2-(3-(4-amino-3-(2-fluoro-4-phenoxyphenyl)-1H-pyrazolo[4,3-c]pyridin-1-yl)piperidine-1-carbonyl)-4-methyl-4-morpholinopent-2-enenitrile], the pIC50 in assay [1] was 6.70; in assay [2], 8.70.

For the compound `CN1CCN(C(C)(C)C=C(C#N)C(=O)N2CCC[C@H]2Cn2nc(-c3ccc(Oc4ccccc4)cc3F)c3c(N)nccc32)CC1` [Compound 12, (S)-2-(2-((4-amino-3-(2-fluoro-4-phenoxyphenyl)-1H-pyrazolo[4,3-c]pyridin-1-yl)methyl)pyrrolidine-1-carbonyl)-4-methyl-4-(4-methylpiperazin-1-yl)pent-2-enenitrile], the pIC50 in assay [1] is 6.06; in assay [2], 7.85.

With `CC(C)(C=C(C#N)C(=O)N1CCC[C@H]1Cn1nc(-c2ccc(Oc3ccccc3)cc2F)c2c(N)nccc21)N1CCN(C2COC2)CC1` [Compound 13, (S)-2-(2-((4-amino-3-(2-fluoro-4-phenoxyphenyl)-1H-pyrazolo[4,3-c]pyridin-1-yl)methyl)pyrrolidine-1-carbonyl)-4-methyl-4-(4-(oxetan-3-yl)piperazin-1-yl)pent-2-enenitrile], the results for the pIC50 in assay [1] and in assay [2] were 5.89 and 8.13, respectively.

As to `CC(C)(C)C=C(C#N)C(=O)N1CCC[C@H]1Cc1nc(-c2ccc(Oc3ccccc3)cc2F)c2c(N)nccn12` [Compound 16, (S)-2-(2-((8-amino-1-(2-fluoro-4-phenoxyphenyl)imidazo[1,5-a]pyrazin-3-yl)methyl)pyrrolidine-1-carbonyl)-4,4-dimethylpent-2-enenitrile], the pIC50 in assay [1] is 6.03; in assay [2], 8.77.

For the compound `CC(C)(/C=C(\C#N)C(=O)N1CCC[C@H]1Cc1nc(-c2ccc(Oc3ccccc3)cc2F)c2c(N)nccn12)N1CCOCC1` [Compound 17, (S)-2-(2-((8-amino-1-(2-fluoro-4-phenoxyphenyl)imidazo[1,5-a]pyrazin-3-yl)methyl)pyrrolidine-1-carbonyl)-4-methyl-4-morpholinopent-2-enenitrile], the pIC50 in assay [1] was 6.78; in assay [2], 8.54.

As for `CN(C1COC1)C(C)(C)C=C(C#N)C(=O)N1CCC[C@H]1Cc1nc(-c2ccc(Oc3ccccc3)cc2F)c2c(N)nccn12` [Compound 18, (S)-2-(2-((8-amino-1-(2-fluoro-4-phenoxyphenyl)imidazo[1,5-a]pyrazin-3-yl)methyl)pyrrolidine-1-carbonyl)-4-methyl-4-(methyl(oxetan-3-yl)amino)pent-2-enenitrile], the pIC50 in assay [1] is 6.89; in assay [2], 8.37.

For `CC(C)(C=C(C#N)C(=O)N1CCC[C@H]1Cc1nc(-c2ccc(Oc3ccccc3)cc2F)c2c(N)nccn12)N1CCN(C2COC2)CC1` [Compound 19, (S)-2-(2-((8-amino-1-(2-fluoro-4-phenoxyphenyl)imidazo[1,5-a]pyrazin-3-yl)methyl)pyrrolidine-1-carbonyl)-4-methyl-4-(4-(oxetan-3-yl)piperazin-1-yl)pent-2-enenitrile], the pIC50 in assay [1] is 6.75; in assay [2], 7.63.

In the case of `CC(C)(C=C(C#N)C(=O)N1CCC[C@H]1Cn1nc(-c2ccc(Oc3ccccc3)cc2F)c2c(N)nccc21)N1CCOCC1` [Compound 22, (S)-2-(2-((4-amino-3-(2-fluoro-4-phenoxyphenyl)-1H-pyrazolo[4,3-c]pyridin-1-yl)methyl)pyrrolidine-1-carbonyl)-4-methyl-4-morpholinopent-2-enenitrile], the pIC50 in assay [1] is 6.29; in assay [2], 8.60.

On to `CC(C)(C=C(C#N)C(=O)N1CCC[C@@H](n2nc(-c3ccc(Oc4ccccc4)cc3F)c3c(N)nccc32)C1)C1CCN(C2COC2)CC1` [Compound 23, (R)-2-(3-(4-amino-3-(2-fluoro-4-phenoxyphenyl)-1H-pyrazolo[4,3-c]pyridin-1-yl)piperidine-1-carbonyl)-4-methyl-4-(1-(oxetan-3-yl)piperidin-4-yl)pent-2-enenitrile], for which the pIC50 is 6.27 in assay [1] and 8.80 in assay [2].

Consider `CC(C)(C=C(C#N)C(=O)N1CCC[C@@H](n2nc(-c3ccc(Oc4ccccc4)cc3F)c3c(N)nccc32)C1)N1CCNC(=O)C1` [Compound 24, (R)-2-(3-(4-amino-3-(2-fluoro-4-phenoxyphenyl)-1H-pyrazolo[4,3-c]pyridin-1-yl)piperidine-1-carbonyl)-4-methyl-4-(3-oxopiperazin-1-yl)pent-2-enenitrile], for which the pIC50 in assay [1] is 6.24; in assay [2], 8.77.

For `CC(C)(C=C(C#N)C(=O)N1CCC[C@@H](n2nc(-c3ccc(Oc4ccccc4)c(F)c3)c3c(N)nccc32)C1)N1CCN(C2COC2)CC1` [Compound 26, (R)-2-(3-(4-amino-3-(3-fluoro-4-phenoxyphenyl)-1H-pyrazolo[4,3-c]pyridin-1-yl)piperidine-1-carbonyl)-4-methyl-4-(4-(oxetan-3-yl)piperazin-1-yl)pent-2-enenitrile], the values for the pIC50 in assay [1] and in assay [2] were 6.44 and 8.52, respectively.

Consider “(R)-2-(3-(4-amino-3-(2-methyl-4-phenoxyphenyl)-1H-pyrazolo[4,3-c]pyridin-1-yl)piperidine-1-carbonyl)-4-methyl-4-(4-(oxetan-3-yl)piperazin-1-yl)pent-2-enenitrile [Compound 25]”, for which the pIC50 in assay [1] is 6.37; in assay [2], 8.36.
